ChEMBL document CHEMBL1201862, “PubChem BioAssay data set” (2004)
The source made the active and inactive calls.

What was measured:
[1] = biological target: T1, Oxysterols receptor LXR-beta (Homo sapiens, UniProt P55055); type: functional, cell-based
T1 sequence (P55055 whole entry): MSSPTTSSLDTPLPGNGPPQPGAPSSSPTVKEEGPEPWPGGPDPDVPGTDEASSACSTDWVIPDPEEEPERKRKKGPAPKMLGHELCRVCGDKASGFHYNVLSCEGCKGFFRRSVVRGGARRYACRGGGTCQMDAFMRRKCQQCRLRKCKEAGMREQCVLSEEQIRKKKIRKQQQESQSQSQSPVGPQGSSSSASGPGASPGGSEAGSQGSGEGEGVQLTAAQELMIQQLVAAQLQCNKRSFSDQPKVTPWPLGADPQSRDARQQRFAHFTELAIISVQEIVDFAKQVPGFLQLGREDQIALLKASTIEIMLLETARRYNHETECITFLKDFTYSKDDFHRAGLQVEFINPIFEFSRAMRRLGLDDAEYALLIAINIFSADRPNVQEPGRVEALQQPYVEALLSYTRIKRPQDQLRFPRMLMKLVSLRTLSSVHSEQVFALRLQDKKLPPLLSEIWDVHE

[2] = HepG2 cell cytotoxicity, dose response, cytotoxicity control, ATP luminescence, cherry-pick, activator set 2 (AID 1053143); type: functional, cell-based
[3] = human group III sPLA2 inhibitors, dose response, biochemical, QFRET, IC50 (AID 743457);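 further: green fluorescence rise as the enzyme cleaves BODIPY PC-A2 in liposomes; potency for inhibition of the enzyme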
[4] = biological target: Mu-type opioid receptor (Homo sapiens, UniProt P35372); type: functional, cell-based;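 further: U2OS cells with beta-arrestin recruitment to OPRM1 by beta-gal complementation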
Chain of Mu-type opioid receptor (P35372 whole entry): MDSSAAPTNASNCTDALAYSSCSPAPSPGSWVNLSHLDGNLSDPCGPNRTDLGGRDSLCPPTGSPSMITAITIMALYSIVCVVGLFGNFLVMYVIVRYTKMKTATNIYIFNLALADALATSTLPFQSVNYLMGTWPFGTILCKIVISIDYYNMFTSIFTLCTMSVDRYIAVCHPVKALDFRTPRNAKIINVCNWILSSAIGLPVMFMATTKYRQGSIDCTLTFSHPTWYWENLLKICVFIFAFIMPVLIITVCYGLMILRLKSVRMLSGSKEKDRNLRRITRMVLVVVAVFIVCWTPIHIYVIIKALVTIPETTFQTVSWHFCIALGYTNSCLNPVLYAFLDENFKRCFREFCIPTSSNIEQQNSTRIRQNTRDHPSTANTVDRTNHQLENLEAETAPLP

[5] = biological target: 5-hydroxytryptamine receptor 2A (Mus musculus, UniProt P35363); type: functional, cell-based;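 further: CHO-K1 cells with tagged receptor and beta-arrestin; agonist potency measured as compound-induced activation of the receptor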
Chain of 5-hydroxytryptamine receptor 2A (P35363 whole entry): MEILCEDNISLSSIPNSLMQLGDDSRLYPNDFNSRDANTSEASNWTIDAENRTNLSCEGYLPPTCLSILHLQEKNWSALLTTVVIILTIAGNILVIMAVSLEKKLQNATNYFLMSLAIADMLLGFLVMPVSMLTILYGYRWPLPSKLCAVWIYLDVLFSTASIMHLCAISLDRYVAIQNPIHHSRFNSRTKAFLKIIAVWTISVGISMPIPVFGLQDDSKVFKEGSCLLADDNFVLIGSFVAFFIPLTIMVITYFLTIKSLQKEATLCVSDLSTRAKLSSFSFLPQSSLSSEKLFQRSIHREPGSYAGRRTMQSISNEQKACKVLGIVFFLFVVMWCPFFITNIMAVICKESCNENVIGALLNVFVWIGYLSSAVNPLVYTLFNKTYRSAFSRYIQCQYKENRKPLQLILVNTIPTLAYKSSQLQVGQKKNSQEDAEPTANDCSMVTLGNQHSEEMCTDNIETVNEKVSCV

[6] = biological target: T2, Rac GTPase-activating protein 1 (Homo sapiens, UniProt Q9H0H5); experiment: MgcRacGAP GTPase-activating activity inhibitors, confirmation, biochemical, ADP Hunter fluorescence, primary and confirmatory (AID 624330); type: functional
T2 sequence (Q9H0H5 whole entry): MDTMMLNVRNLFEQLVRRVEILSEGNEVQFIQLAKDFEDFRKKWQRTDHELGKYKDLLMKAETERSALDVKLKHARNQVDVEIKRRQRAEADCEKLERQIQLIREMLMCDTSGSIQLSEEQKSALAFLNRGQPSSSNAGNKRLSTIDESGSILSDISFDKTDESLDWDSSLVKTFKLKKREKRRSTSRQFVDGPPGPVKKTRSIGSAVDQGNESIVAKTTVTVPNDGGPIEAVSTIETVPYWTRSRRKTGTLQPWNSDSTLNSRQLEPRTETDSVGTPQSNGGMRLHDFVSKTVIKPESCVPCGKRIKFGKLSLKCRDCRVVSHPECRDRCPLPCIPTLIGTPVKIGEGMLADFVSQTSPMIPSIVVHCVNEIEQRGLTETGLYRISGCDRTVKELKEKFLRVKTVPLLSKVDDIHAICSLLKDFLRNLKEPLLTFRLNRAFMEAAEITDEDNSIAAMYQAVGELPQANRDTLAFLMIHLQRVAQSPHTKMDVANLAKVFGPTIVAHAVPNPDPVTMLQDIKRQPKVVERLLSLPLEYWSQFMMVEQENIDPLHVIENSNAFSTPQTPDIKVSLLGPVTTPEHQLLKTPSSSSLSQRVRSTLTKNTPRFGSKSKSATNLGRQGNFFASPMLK

[7] = biological target: T3, Histone-lysine N-methyltransferase NSD2 (Homo sapiens, UniProt O96028); type: biochemical
T3 sequence (O96028 whole entry): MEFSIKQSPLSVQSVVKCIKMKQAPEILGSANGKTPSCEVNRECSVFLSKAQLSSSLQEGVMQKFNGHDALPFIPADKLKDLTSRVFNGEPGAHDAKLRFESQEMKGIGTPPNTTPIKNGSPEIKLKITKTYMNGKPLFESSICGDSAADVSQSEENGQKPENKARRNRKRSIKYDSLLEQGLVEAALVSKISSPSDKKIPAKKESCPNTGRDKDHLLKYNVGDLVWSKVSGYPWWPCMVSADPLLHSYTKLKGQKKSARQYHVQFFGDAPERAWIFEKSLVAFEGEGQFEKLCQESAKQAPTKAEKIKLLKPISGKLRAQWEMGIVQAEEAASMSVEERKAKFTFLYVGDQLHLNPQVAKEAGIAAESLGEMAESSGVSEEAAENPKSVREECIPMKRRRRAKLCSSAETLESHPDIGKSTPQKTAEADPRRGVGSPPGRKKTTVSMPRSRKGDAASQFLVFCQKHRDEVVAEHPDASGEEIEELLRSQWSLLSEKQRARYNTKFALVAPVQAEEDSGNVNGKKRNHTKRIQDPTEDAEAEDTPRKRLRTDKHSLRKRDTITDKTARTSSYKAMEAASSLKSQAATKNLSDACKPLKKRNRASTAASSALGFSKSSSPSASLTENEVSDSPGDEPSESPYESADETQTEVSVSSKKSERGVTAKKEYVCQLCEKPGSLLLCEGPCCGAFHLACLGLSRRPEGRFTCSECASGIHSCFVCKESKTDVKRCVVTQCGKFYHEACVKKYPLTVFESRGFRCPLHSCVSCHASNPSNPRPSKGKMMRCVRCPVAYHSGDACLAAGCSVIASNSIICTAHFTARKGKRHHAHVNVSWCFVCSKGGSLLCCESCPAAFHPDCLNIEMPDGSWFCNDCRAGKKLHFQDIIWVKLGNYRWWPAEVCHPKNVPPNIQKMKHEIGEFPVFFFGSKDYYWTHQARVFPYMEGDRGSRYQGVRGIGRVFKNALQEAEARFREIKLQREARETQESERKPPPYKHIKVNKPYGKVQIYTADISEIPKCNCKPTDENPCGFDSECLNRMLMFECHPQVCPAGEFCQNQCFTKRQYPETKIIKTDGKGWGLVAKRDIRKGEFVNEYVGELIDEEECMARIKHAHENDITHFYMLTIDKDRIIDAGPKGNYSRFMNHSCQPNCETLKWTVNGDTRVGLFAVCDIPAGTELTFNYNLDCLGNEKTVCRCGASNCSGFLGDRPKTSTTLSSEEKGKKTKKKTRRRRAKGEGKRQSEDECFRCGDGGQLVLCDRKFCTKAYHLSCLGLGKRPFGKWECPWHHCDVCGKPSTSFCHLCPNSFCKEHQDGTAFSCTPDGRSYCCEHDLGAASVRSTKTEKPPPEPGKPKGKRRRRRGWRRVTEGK

[8] = HEK293T cytotoxicity, dose response, cytotoxicity control for miR-122 modulator project, cell-based, inhibitor set, cherry-pick, set 2 (AID 720697); type: functional
[9] = biological target: T4, Mannose-6-phosphate isomerase (Homo sapiens, UniProt P34949); experiment: human PMI inhibitors, high substrate, primary screen, biochemical, fluorescence intensity, high mannose 6-phosphate (AID 1220)
T4 sequence (P34949 whole entry): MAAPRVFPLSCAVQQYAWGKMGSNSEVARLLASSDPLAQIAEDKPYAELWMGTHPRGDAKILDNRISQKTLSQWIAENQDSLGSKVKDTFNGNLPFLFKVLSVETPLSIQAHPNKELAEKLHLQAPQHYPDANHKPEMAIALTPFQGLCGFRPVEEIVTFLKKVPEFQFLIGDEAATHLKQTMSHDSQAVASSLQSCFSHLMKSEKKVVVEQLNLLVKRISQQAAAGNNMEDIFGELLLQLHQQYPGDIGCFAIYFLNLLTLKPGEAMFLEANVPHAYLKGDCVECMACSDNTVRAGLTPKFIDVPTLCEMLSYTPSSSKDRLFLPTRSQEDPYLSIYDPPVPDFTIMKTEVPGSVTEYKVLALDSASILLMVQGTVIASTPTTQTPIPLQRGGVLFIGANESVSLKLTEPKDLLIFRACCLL

[10] = biological target: T4, Mannose-6-phosphate isomerase; experiment: inhibitors of human PMI, primary screen, biochemical, fluorescence intensity, coupled assay (AID 1209)
[11] = biological target: Albumin (Bos taurus, UniProt P02769); experiment: Counterscreen for inhibitors of T-cell receptor (TCR)-CD3 interaction: Fluorescence-based biochemical high throughput dose response assay to identify inhibitors of T-cell receptor (TCR)-CD3 interaction using a TAMRA-labeled BSA probe.; type: functional
Chain of Albumin (P02769 whole entry): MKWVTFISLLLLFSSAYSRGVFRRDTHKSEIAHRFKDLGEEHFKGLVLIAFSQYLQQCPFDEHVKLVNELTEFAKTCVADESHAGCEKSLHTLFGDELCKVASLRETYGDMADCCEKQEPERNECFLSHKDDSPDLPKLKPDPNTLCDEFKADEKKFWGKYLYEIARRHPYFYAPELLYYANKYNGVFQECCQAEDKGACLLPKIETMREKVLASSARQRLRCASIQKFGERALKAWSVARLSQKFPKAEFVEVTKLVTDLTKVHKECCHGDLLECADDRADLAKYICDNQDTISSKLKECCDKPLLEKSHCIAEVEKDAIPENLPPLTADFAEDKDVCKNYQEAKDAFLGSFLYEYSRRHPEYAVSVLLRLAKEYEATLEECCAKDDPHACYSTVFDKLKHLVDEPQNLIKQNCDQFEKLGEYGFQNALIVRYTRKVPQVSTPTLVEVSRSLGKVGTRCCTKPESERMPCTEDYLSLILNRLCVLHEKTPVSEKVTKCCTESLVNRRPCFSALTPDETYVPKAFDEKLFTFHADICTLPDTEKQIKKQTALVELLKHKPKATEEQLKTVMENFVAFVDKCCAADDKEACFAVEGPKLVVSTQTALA

[12] = HEK293T cytotoxicity, dose response, cytotoxicity control for miR-122 modulator project, cell-based, activator set, cherry-pick (AID 720690); type: functional;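 further: HEK293T human cells scored for general mammalian cytotoxicity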
[13] = biological target: ADP-ribosylation factor GTPase-activating protein 1 (Rattus norvegicus, UniProt Q62848); experiment: Fluorescence polarization-based biochemical high throughput dose response screening assay to identify inhibitors of ADP-ribosylation factor GTPase activating protein 1 (ARFGAP1).; type: functional
Chain of ADP-ribosylation factor GTPase-activating protein 1 (Q62848 whole entry, the tested form may be a part): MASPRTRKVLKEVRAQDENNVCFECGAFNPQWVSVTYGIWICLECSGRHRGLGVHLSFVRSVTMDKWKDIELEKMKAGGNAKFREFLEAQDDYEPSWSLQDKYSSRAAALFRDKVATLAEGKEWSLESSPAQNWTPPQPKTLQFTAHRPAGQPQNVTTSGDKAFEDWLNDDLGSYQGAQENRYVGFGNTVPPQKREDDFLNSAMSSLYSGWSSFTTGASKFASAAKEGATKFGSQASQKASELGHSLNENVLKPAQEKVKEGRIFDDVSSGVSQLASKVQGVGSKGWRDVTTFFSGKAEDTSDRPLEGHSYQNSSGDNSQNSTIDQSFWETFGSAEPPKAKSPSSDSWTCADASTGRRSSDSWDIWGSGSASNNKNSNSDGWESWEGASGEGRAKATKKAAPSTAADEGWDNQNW

[14] = biological target: Arf-GAP with SH3 domain, ANK repeat and PH domain-containing protein 1 (Homo sapiens, UniProt Q9ULH1); type: functional;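 further: biochemical fluorescence polarization dose–response screen measuring inhibition of ASAP1; ASAP1 GAP domain stimulating GTP hydrolysis by truncated human ARF1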
Chain of Arf-GAP with SH3 domain, ANK repeat and PH domain-containing protein 1 (Q9ULH1 whole entry, the tested form may be a part): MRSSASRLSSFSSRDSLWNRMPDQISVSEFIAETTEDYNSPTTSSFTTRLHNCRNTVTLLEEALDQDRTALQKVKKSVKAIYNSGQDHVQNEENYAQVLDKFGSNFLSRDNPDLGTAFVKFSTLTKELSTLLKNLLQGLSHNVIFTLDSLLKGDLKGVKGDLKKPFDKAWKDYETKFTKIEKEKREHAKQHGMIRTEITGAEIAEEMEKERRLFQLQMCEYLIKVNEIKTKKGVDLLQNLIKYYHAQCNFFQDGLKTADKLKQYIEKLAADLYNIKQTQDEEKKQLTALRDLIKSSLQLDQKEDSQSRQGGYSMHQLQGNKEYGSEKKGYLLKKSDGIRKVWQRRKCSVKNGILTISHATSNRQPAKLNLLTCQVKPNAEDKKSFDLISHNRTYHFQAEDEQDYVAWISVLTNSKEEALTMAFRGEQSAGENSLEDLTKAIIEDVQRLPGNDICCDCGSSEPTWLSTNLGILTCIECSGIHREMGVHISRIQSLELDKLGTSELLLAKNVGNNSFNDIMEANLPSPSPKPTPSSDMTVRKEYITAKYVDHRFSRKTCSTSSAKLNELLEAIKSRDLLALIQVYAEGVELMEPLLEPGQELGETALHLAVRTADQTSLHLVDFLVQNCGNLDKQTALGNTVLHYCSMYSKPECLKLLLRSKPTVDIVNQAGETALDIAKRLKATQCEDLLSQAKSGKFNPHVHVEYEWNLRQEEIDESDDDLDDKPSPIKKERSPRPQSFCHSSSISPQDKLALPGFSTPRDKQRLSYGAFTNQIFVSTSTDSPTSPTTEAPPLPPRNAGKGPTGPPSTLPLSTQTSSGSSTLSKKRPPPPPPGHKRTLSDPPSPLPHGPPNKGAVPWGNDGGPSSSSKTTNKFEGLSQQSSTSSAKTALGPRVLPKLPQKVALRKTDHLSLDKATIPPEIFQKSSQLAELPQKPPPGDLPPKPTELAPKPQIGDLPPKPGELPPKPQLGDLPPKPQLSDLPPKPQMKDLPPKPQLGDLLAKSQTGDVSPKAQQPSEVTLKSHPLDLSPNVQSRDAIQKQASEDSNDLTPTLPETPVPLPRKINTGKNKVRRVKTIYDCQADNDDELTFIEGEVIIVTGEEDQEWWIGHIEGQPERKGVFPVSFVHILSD

[15] = biological target: T5, DNA repair protein RAD52 homolog (Homo sapiens, UniProt P43351); type: functional, biochemical
T5 sequence (P43351 whole entry): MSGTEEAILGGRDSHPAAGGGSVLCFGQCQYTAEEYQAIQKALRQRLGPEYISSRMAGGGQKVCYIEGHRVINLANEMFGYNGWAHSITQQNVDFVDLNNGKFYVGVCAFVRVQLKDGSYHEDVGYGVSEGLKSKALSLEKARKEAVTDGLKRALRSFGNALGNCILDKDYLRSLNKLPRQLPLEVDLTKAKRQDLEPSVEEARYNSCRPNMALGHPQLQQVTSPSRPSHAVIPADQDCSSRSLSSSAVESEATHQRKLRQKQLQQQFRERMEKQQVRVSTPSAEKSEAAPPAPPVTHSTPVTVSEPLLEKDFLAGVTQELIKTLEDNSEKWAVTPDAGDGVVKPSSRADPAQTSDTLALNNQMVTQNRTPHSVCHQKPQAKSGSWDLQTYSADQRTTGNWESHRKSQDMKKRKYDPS

[16] = biological target: T6, Short transient receptor potential channel 4 (Mus musculus, UniProt Q9QUQ5); experiment: mouse TRPC4 channel inhibitors, dose response, cell-based, HEK293 TRPC4/mu-opioid, Fluo-4 calcium (AID 434942); type: functional;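 further: potency of inhibitors blocking the TRPC4 calcium response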
T6 sequence (Q9QUQ5 whole entry): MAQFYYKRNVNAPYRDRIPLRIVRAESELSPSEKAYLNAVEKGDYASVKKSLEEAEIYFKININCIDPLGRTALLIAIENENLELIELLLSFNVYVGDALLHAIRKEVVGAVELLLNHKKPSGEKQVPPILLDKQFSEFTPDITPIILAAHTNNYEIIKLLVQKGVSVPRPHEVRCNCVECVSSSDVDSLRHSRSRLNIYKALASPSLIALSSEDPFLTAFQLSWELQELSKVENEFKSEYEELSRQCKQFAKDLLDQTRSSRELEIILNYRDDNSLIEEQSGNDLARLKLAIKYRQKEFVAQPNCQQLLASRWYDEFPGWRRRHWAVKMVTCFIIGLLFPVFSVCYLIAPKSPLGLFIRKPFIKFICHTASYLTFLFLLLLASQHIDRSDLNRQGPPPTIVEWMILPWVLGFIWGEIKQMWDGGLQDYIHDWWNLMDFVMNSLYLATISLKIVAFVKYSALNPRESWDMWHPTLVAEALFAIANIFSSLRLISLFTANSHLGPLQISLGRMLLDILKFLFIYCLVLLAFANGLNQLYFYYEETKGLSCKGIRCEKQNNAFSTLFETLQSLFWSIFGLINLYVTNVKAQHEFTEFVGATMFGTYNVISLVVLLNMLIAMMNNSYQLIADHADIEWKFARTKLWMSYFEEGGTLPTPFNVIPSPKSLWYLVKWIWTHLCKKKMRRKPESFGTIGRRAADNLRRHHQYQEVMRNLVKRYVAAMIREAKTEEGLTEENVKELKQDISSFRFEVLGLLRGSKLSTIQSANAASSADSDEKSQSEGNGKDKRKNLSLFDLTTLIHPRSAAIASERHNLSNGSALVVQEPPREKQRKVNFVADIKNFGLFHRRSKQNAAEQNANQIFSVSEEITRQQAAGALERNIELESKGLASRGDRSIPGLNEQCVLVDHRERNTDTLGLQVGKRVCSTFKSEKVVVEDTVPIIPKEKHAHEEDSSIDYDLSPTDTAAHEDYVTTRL

[17] = cells
[18] = biological target: T1, Oxysterols receptor LXR-beta; type: functional, cell-based; remark: listed apart in the source

COC(=O)c1sc2nc3c(cc2c1N)CCCC3
EC50 [1]: > 67.5 µM (inactive)

CN(C)c1cccc(-c2cnc(N3CCC(C(N)=O)CC3)s2)c1
EC50 [1]: > 67.5 µM (inactive)

CC(=O)CC1(O)C(=O)N(Cc2ccccc2)c2ccccc21 (stereo not drawn)
AC50 [2]: > 52 µM (inactive)

O=C(NNC(=S)Nc1ccc(Br)cc1)c1cccnc1
IC50 [3]: > 122 µM (inactive)

COc1ccc(CC2(CO)CCN(Cc3cc4ccccc4o3)CC2)cc1
EC50 [4]: 92.5 µM (inactive) | EC50 [5]: 1.07 µM (active)

Cc1ccc(C(=O)Nc2ncc(Cc3ccc(F)cc3)s2)o1
AC50 [2]: 12 µM (active)

CCN(CC)c1ccc(/C=N/NC(=S)NC)c(O)c1
IC50 [3]: > 122 µM (inactive) | IC50 [6]: 58.2 µM (active)

CNCCCC12CCC(c3ccccc31)c1ccccc12 [MAPROTILINE]
AC50 [7]: > 20 µM (inactive)

COCCN(C[C@@H]1[C@@H](c2ccccc2)[C@H](CO)N1C(=O)C1CC1)C(C)=O
AC50 [8]: 0.502 µM (active)

CN(Cc1c(O)ccc2c1oc(=O)c1ccccc12)C1CCCCC1
AC50 [7]: 4.96 µM (active) | IC50 [9]: 7.13 µM (active) | IC50 [10]: 5.12 µM (active)

COc1ccc(C(=O)NC(=S)NNC(=O)c2ccc(O)cc2)cc1[N+](=O)[O-]
IC50 [11]: > 94.1 µM (inactive)

CNC[C@H]1Oc2cc(C#CC3CCCC3)ccc2S(=O)(=O)N([C@H](C)CO)C[C@H]1C
AC50 [12]: 30.9 µM (active)

COc1ccc(CC(NC(C)=O)C(=O)N2CCN(C(=O)N(C(C)C)C(C)C)CC2)cc1 (stereo not drawn)
AC50 [8]: 0.834 µM (active)

O=C(COc1ccc2oc(-c3ccco3)cc(=O)c2c1)N1CCCCC1
IC50 [13]: 28.5 µM (inactive) | IC50 [14]: 22.4 µM (inactive)

Nc1ccc(CC2=NCCN2)cc1
AC50 [15]: 0.739 µM (active)

Cc1ccc(-c2nnc(NC3CCCC3)s2)cc1
EC50 [1]: > 67.6 µM (inactive)

COc1ccc(CN2CCN(c3ccccn3)CC2)c(OC)c1
EC50 [4]: 92.5 µM (inactive) | EC50 [5]: 0.529 µM (active)

CC(COc1ccccc1)N1CCC(CO)(Cc2ccccc2)CC1 (stereo not drawn)
EC50 [4]: 92.5 µM (inactive) | EC50 [16]: 5.96 µM (active) | EC50 [5]: 0.59 µM (active)

C/C(=N/N=C(/C)c1cccs1)c1cccs1
EC50 [17]: > 67.6 µM (inactive) | EC50 [18]: > 67.6 µM (inactive)
